Reference: US5212286A, “Atrial Natriuretic/vasodilator peptide compounds” (Scios Nova Inc., priority 1986, dated 1993)
Positions of bridges follow the written chain, without caps; N, C: chain ends. Residues, ends and D or L forms follow the SMILES beside them.

Assays:
[1] = system: intact rats; assay: Natriuretic and diuretic effects in intact rats (bolus injection); format: in vivo, rat; details: bolus injection, Inactin anesthetized rats
Procedure: Synthetic ANVP compounds […] hANVP(127-151) were also found to be natriuretic in the intact rat. These compounds were administered as a bolus injection to Inactin anesthetized rats (100 mg/kg, average weight 399 g) which were maintained on a constant infusion of normal saline at 2.2 ml/hr. […] Data are expressed as mean±SE.

[2] = system: ANVP receptor sites on cultured bovine vascular smooth muscle cells; assay: Displacement of specific [125I]rANVP(126-150) binding on cultured smooth muscle cells; details: Series B smooth muscle cells; concentration of half-maximal displacement
Source text: Specific and saturable binding is a necessary component of a hormone/receptor interaction.
Various concentrations of the peptides described were examined for […]

[3] = system: anesthetized dogs; assay: Hemodynamic, renal and metabolic effects in anesthetized dogs; format: in vivo, dog
Procedure: Renal and hemodynamic effects have also been measured in anesthetized dogs receiving a constant infusion of the compound rANVP(126-149) (1 μg/kg bolus, followed by 0.1 μg/kg/min for 1 hour). Effects were immediately detected on blood pressure, GFR and urine flow rate and electrolyte excretion and were sustained throughout the infusion. The "experimental" data presented for these parameters in […] are the average values obtained during the infusion. Mean arterial pressure (MAP) fell consistently by 10-15% while GFR rose by 25-35%, in association with a sustained diuresis and natriuresis (Table VIII). The parameters returned to control (i.e. pre-infusion) levels following termination of the infusion.

[4] = system: isolated rat kidney; assay: Renal function in the isolated perfused rat kidney; details: experimental peak value; 0.1 to 1.0 μg added to perfusate; mean ± SE of 4 kidneys
[5] = experimental: average during infusion
[6] = recovery, after termination of the infusion

`CC[C@H](C)[C@@H]1NC(=O)[C@H](CCCNC(=N)N)NC(=O)[C@H](CC(=O)O)NC(=O)[C@H]([C@@H](C)CC)NC(=O)[C@H](CCCNC(=N)N)NC(=O)CNC(=O)CNC(=O)[C@H](Cc2ccccc2)NC(=O)[C@@H](NC(=O)[C@H](CO)NC(=O)[C@H](CO)NC(=O)[C@@H](N)CCCNC(=N)N)CSSC[C@@H](C(=O)N[C@@H](CC(N)=O)C(=O)N[C@@H](CO)C(=O)N[C@@H](Cc2ccccc2)C(=O)N[C@@H](CCCNC(=N)N)C(=O)O)NC(=O)CNC(=O)[C@H](CC(C)C)NC(=O)CNC(=O)[C@H](CO)NC(=O)[C@H](CCC(N)=O)NC(=O)[C@H](C)NC(=O)CNC1=O` [rANVP(126-149)] (H-RSSCFGGRIDRIGAQSGLGCNSFR-OH; disulfide 4-20) was tested, and the “natriuretic in the intact rat, in words” value [1] was “natriuretic”, the Ki [2] was 0.89 nM and the “fall of mean arterial pressure (MAP)” value ([3]; during infusion) was 10-15%. For the same compound, the “rise of GFR” value ([3]; during infusion) was 25-35%, the “.V (urine flow rate)” value [3, 5] was 1.06 ± 0.14 mL/min and the “FEH2O (fractional water excretion)” value [3, 5] was 3.4 ± 0.3%. For the same compound, the FEK [3, 5] was 34 ± 6%, the FENa [3, 5] was 4.1 ± 0.5% and the GFR [3, 5] was 32.3 ± 4.1 mL/min. The “PA (plasma aldosterone)” value [3, 5] was 5.4 ± 0.9 ng/100 ml, the “PRA (plasma renin activity)” value [3, 5] was 8.3 ± 1.8 ng/mL/h and the “UK .V” value [3, 5] was 36 ± 6 μEq/min. For the same compound, the “UNa .V” value [3, 5] was 187 ± 35 μEq/min, the “MAP (mean arterial pressure)” value ([3]; experimental: average during infusion, 1 μg/kg bolus then 0.1 μg/kg/min for 1 hour) was 122 ± 4 mm Hg and the “.V (urine flow rate)” value [3, 6] was 0.37 ± 0.05 mL/min. For the same compound, the “FEH2O (fractional water excretion)” value [3, 6] was 1.5 ± 0.2%, the FEK [3, 6] was 21 ± 4% and the FENa [3, 6] was 1.9 ± 0.4%. For the same compound, the GFR [3, 6] was 25.4 ± 3.3 mL/min, the “MAP (mean arterial pressure)” value [3, 6] was 136 ± 4 mm Hg and the “PA (plasma aldosterone)” value [3, 6] was 7.0 ± 1.3 ng/100 ml. The “PRA (plasma renin activity)” value [3, 6] was 14 ± 2.5 ng/mL/h, the “UK .V” value [3, 6] was 21 ± 4 μEq/min and the “UNa .V” value [3, 6] was 68 ± 14 μEq/min. The “.V (urine flow rate)” value [4] was 97.6 ± 19.4 µL/min, the “FEK (fractional potassium excretion)” value [4] was 52.1 ± 6.2% and the “FENa (fractional sodium excretion)” value [4] was 6.6 ± 2.0%. For the same compound, the “FF (filtration fraction)” value [4] was 0.021 ± 0.001, the “FLNa (filtered load of sodium)” value [4] was 90.1 ± 5.2 μEq/min and the “GFR (glomerular filtration rate)” value [4] was 0.63 ± 0.03 mL/min. For the same compound, the “RVR (renal vascular resistance)” value [4] was 3.9 ± 0.3 mmHg/ml/min, the “TNa (tubular reabsorption of sodium)” value [4] was 84.2 ± 4.8 μEq/min and the “UK .V (urinary potassium excretion rate)” value [4] was 1.46 ± 0.16 μEq/min. For the same compound, the “UNa.V (urinary sodium excretion rate)” value [4] was 6.01 ± 1.99 μEq/min.
